From US20050239874A1, “Novel analgesic and immunomodulatory cannabinoids” (University of Connecticut, priority 1998, published 2005)
Where two headings read alike, the source gives them in different places.

Experiments:
CB2 receptor = biological target: T1, CB2 receptor (Mus musculus, UniProt P47936); assay: Radioligand binding assay ([3H]CP-55,940 displacement), mouse spleen as source of CB2; conditions: for selectivity for the CB2 receptor: CB2 over CB1, statement in words
T1 construct: Mouse spleen was used a source of CB2 receptors; from tissue; host or cells: mouse spleen
Experimental: (§1) Approximately 30 μg of tissue was incubated in silanized 96 well microtiter plate with TME containing 0.1% essentially fatty acid free bovine serum albumin (BSA), 0.8 nM CH^3]CP-55,940 and various concentrations of the test compound in a final volume of 200 μL. Assays were incubated at 30° C. for 1 hour. The samples were filtered using Packard Filtermate 196 and Whatman GF/C Filterplates and washed with wash buffer (TME) containing 0.5% BSA. Radioactivity was detected using MicroScint 20 scintillation cocktail added directly to the dried filterplates, and the filterplates were counted using a Packard Instruments Top-Count. Nonspecific binding was assessed using 100 nM CP-55,940. Data collected from three independent experiments performed with duplicate determinations were normalized between 100% and 0% specific binding for [H^3]CP-55,940, determined using buffer and 100 nM CP-55,940. The normalized data was analyzed using a 4 parameter nonlinear logistic equation to yield IC50 values. Data from at least two independent experiments performed in duplicate were used to calculate IC50 values which were convered to Ki values using the assumptions of Cheng and Prusoff, Biochem. Pharmacol., 22:3099 (1973), the entire teachings of which are incorporated herein by reference.
Mouse spleen was used a source of CB2 receptors to assess binding affinity of analogs described in this invention. The CB2 binding assay was conducted in the same manner as for CB1. Silanized centrifuge tubes were used throughout to minimize receptor loss due to adsorption.

CB1 receptor = biological target: T2, CB1 receptor (Rattus norvegicus, UniProt P20272); assay: Radioligand binding assay ([3H]CP-55,940 displacement), rat forebrain membranes as source of CB1
T2 construct: using rat forebrain membranes as a source of CB1; from tissue; host or cells: rat forebrain (whole brain minus cerebral cortex) membranes
Experimental: The binding affinities of the novel compounds described in this invention for the central cannabinoid receptor was assessed using rat forebrain membranes as a source of CB1. Membranes were prepared as described by the method of Dodd et al., Brain Res. 226:107 (1981), the entire teachings of which are incorporated herein by reference. Rat whole brains minus the cerebral cortex were diced with a razor blade and homogenized in 0.32 M sucrose, pH 7.4. The resulting suspension was spun at 400×g at 4° C. The supernatant was decanted and layered over 1.2 M sucrose in TME buffer (25 mM Tris base, 5 mM MgCl2 1 mMEDTA, pH 7.4) and spun at 109,000×g. The interface containing plasma membrane protein was collected, pooled and layered over 0.8 M sucrose in TME, pH 7.4. The pellet was carefully resuspended in TME, pH 7.4 and the total protein content was assayed by the method of Markwell et al., Anal. Biochem. 87:206 (1978), the entire teachings of which are incorporated herein by reference. Protein was aliquotted, frozen under liquid nitrogen and stored at −80° C. until use.
as §1

[1] = rat forebrain membranes, 0.8 nM [3H]CP-55,940, Ki from IC50 by Cheng and Prusoff, read-out: Ki in nM for the CB1 Receptor
[2] = Ki for the CB2 receptor, refers to Example 2
[3] = Ki in nM for the CB2 Receptor, mouse spleen, [3H]CP-55,940, Ki from IC50 by Cheng and Prusoff
[4] = Ki in nM for the CB1 Receptor, rat forebrain membranes, 0.8 nM [3H]CP-55,940, Ki from IC50 by Cheng and Prusoff
[5] = Ki for the CB1 receptor, refers to Example 2

T2 sequence (P20272 whole entry): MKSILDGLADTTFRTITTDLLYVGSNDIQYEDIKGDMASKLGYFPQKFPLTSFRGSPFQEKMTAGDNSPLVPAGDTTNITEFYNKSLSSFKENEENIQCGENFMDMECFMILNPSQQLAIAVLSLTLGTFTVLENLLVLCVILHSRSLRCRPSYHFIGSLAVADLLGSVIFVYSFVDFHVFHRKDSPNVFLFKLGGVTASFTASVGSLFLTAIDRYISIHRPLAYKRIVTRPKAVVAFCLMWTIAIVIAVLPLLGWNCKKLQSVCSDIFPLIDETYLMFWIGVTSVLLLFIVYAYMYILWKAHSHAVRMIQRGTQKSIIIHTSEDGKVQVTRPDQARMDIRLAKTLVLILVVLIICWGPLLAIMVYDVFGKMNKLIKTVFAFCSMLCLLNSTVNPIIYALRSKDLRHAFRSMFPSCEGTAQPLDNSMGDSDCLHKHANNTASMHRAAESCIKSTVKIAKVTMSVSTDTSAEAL
T1 sequence (P47936 whole entry): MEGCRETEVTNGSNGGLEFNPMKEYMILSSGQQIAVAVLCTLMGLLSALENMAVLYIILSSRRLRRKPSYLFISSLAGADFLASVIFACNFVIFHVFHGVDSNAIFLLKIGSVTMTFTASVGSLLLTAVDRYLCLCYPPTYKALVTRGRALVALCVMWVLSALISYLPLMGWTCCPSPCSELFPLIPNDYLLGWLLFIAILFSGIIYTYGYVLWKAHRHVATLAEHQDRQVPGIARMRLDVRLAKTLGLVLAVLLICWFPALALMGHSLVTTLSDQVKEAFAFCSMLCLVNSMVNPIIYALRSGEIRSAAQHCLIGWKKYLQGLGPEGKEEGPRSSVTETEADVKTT

Compound: CC1=CC[C@@H]2[C@@H](C1)c1c(O)cc(C34CC5CC(CC(C5)C3)C4)cc1OC2(C)C [AM411]
- Ki (CB2 receptor; mouse spleen, [3H]CP-55,940, Ki from IC50 by Cheng and Prusoff, read-out: Ki in nM for the CB2 Receptor): 52 nM
- selectivity for the CB1 receptor (CB1 receptor; CB1 over CB2, statement in words): selective agonists
- Ki (CB1 receptor; [1]): 6.9 nM

Compound: CC1=CC[C@@H]2[C@@H](C1)c1c(O)cc(C3CC4CCC3(C)C4(C)C)cc1OC2(C)C (stereo partly shown) [AM731]
- selectivity for the CB2 receptor (CB2 receptor): selective agonists
- Ki (CB2 receptor; [2]): < 10 nM
- Ki (CB2 receptor; [3]): 6.1 nM
- Ki (CB1 receptor; [4]): 60.6 nM

Compound: CC1=CC[C@@H]2[C@@H](C1)c1c(O)cc(C3CC4CCC3(C)C4(C)C)cc1OC2(C)C (stereo partly shown) [AM732]
- selectivity for the CB2 receptor (CB2 receptor): selective agonists
- Ki (CB2 receptor; [3]): 2 nM
- Ki (CB1 receptor; [4]): 20.1 nM

Compound: CCCCCCC1(c2cc(O)c3c(c2)OC(C)(C)[C@@H]2CC=C(C)C[C@@H]32)SCCS1 [AMG3]
- Ki (CB2 receptor; [3]): 1.7 nM
- Ki (CB1 receptor; [5]): < 1 nM
- Ki (CB1 receptor; [1]): 0.32 nM

Compound: CCCCCCC1(c2cc(O)c3c(c2)OC(C)(C)[C@@H]2CC=C(C)C[C@@H]32)OCCO1 [AMG14]
- Ki (CB1 receptor; [5]): < 1 nM
- Ki (CB1 receptor; [4]): 0.2 nM

Compound: CCCCCc1cc(O)c2c(c1)OC(C)(C)[C@@H]1CC=C(C)C[C@@H]21 [Δ^8-tetrahydrocannabinol, reference compound]
- Ki (CB2 receptor; [2]): 14 nM
